US9695193B2, “Inhibitors of Plasmodium falciparum equilibrative nucleoside transporter type I as anti-parasitic compounds” (The Trustees of Columbia University in the City of New York, priority 2013, dated 2017)

Target: T1, PfENT1 (Plasmodium falciparum, UniProt Q8IDM6)
T1 construct: expressed in transfected cells; host or cells: fui1Δ yeast (Saccharomyces cerevisiae), co-expressing GFP
Type: cell-based
Details: primary HTS, compounds at 10 μM, 125 μM 5-FUrd
Method: A yeast-based high throughput screening (HTS) assay was used to identify compounds that inhibit PfENT1. The compounds described in this application were identified by screening four commercially available, chemical compound libraries obtained from Dr. Donald Landry's laboratory (Department of Medicine, Columbia University). These libraries contain approximately 80,000 unique chemical entities.
In the primary screen the compounds were tested at a concentration of 10 μM. Hits were identified by the growth of fui1Δ yeast expressing PfENT1 and Green Fluorescent Protein (GFP) in the presence of the cytotoxic nucleoside 5-fluorouridine (5-FUrd). 5-FUrd is transported by PfENT1. PfENT1 expressing fui1Δ yeast will only grow in the presence of 125 μM 5-FUrd if a PfENT1 inhibitor blocks the uptake of 5-FUrd into the yeast. Significant yeast growth in the HTS in 384 well plates was determined by two criteria: 1) turbidity as determined by the optical density at 620 nm (OD620) and 2) GFP fluorescence intensity. […] Hits had to be positive by both criteria.

T1 sequence (Q8IDM6 whole entry): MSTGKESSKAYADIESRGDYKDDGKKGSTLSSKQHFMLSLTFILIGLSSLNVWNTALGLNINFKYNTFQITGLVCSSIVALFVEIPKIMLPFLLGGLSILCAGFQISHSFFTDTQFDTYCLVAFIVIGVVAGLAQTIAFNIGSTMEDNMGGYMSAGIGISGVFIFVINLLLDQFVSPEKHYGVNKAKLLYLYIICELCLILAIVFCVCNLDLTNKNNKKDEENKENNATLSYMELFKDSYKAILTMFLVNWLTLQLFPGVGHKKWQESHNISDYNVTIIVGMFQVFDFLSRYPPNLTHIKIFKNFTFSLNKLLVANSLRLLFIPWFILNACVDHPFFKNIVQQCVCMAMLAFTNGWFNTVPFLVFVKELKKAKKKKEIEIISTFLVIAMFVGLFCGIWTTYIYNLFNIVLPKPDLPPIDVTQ

COCc1cc(C)nc2sc(C(=O)Nc3cccc(OC)c3)c(N)c12 [compound 53, 3-amino-4-(methoxymethyl)-N-(3-methoxyphenyl)-6-methylthieno [2,3-b]pyridine-2-carboxamide]
Avg Normalized % maximal activity: 7.94%

COc1ccc(-c2cnc3ccccc3n2)cc1NC(=O)c1ccco1 [compound 54, N-[2-methoxy-5-(2-quinoxalinyl)phenyl]-2-furamide]
Avg Normalized % maximal activity: 7.83%

Cc1cccn2c(=O)c3cc(C(=O)NC4CCCC4)sc3nc12 [compound 55, N-cyclopentyl-9-methyl-4-oxo-4H-pyrido[1,2-a]thieno[2,3-d] pyrimidine-2-carboxamide]
Avg Normalized % maximal activity: 7.75%

O=C(CSc1nnc2ccc3ccccc3n12)Nc1ccccc1F [compound 56, N-(2-fluorophenyl)-2-([1,2,4]triazolo[4,3-a]quinolin-1-ylthio)acetamide]
Avg Normalized % maximal activity: 7.69%

CCN(CC)C(=O)c1ccc(-c2ccc(N3CCOCC3)c3ccccc23)nn1 [compound 57]
Avg Normalized % maximal activity: 7.64%

COc1ccc(-c2nc3ccccc3s2)cc1NC(=O)c1cccnc1 [compound 58, N-[5-(1,3-benzothiazol-2-yl)-2-methoxyphenyl] nicotinamide]
Avg Normalized % maximal activity: 7.63%

Cn1nc(-c2ccc(C(=O)N3CCCCC3)cc2)c2ccccc2c1=O [compound 59, 2-methyl-4-[4-(1-piperidinylcarbonyl)phenyl]-1(2H)-phthalazinone]
Avg Normalized % maximal activity: 7.59%

Cc1ccc2c(Cl)c(C(=O)Nc3cccnc3)sc2c1 [compound 60, 3-chloro-6-methyl-N-3-pyridinyl-1-benzothiophene-2-carboxamide]
Avg Normalized % maximal activity: 7.53%

CC1(C)CC(=O)c2sc(NC(=O)c3ccccc3F)nc2C1 [compound 61, N-(5,5-dimethyl-7-oxo-4,5,6,7-tetrahydro-1,3-benzothiazol-2-yl)-2-fluorobenzamide]
Avg Normalized % maximal activity: 7.27%

O=C(Cc1cccc2ccccc12)Nc1nncs1 [compound 62, 2-(1-naphthyl)-N-1,3,4-thiadiazol-2-ylacetamide]
Avg Normalized % maximal activity: 7.27%

COc1ccc(OC)c(Nc2nc(=O)c3cccnc3s2)c1 [compound 63, 2-[(2,5-dimethoxyphenyl)amino]-4H-pyrido[3,2-e][1,3] thiazin-4-one]
Avg Normalized % maximal activity: 7.19%

CCOc1cc(-c2noc(CCCC(=O)N3CCCCC3)n2)ccc1OC [compound 64, 1-{4-[3-(3-ethoxy-4-methoxyphenyl)-1,2,4-oxadiazol-5-yl]butanoyl}piperidine]
Avg Normalized % maximal activity: 7.14%

Cc1ccnc(NC(=O)c2cccc(NC(=O)c3ccco3)c2)c1 [compound 65, N-(3-{[(4-methyl-2-pyridinyl)amino]carbonyl}phenyl)-2-furamide]
Avg Normalized % maximal activity: 7.09%

CCC(=O)c1ccc(/C=C/c2nc3ccccc3n2C)o1 [compound 66, 1-{5-[2-(1-methyl-1H-benzimidazol-2-yl)vinyl]-2-furyl}-1-propanone]
Avg Normalized % maximal activity: 7.04%

COc1ccc(-c2cc3ccccc3oc2=O)cc1NC(=O)c1cccs1 [compound 67, N-[2-methoxy-5-(2-oxo-2H-chromen-3-yl)phenyl]-2-thiophenecarboxamide]
Avg Normalized % maximal activity: 6.98%

CC(C)(C)c1nnc(NC(=O)c2cccc(Cl)c2)s1 [compound 68]
Avg Normalized % maximal activity: 6.79%

COc1ccccc1CN1CCN(Cc2ccccn2)CC1 [compound 69, 1-(2-methoxybenzyl)-4-(2-pyridinylmethyl) piperazine]
Avg Normalized % maximal activity: 6.74%

O=C(Nc1ccc(C(=O)N2CCCCC2)cc1)c1cc2ccccc2oc1=O [compound 70, 2-oxo-N-[4-(1-piperidinylcarbonyl)phenyl]-2H-chromene-3-carboxamide]
Avg Normalized % maximal activity: 6.71%

O=C(CCCN1C(=O)c2cccc3cccc(c23)C1=O)N1CCCCC1 [compound 71, 2-[4-oxo-4-(1-piperidinyl)butyl]-1H-benzo[de]isoquinoline-1,3(2H)-dione]
Avg Normalized % maximal activity: 6.67%

COc1cc2c(cc1OC)-c1cc3ccc(OC)c(OC)c3c[n+]1CC2 [compound 72]
Avg Normalized % maximal activity: 6.56%

COC(=O)c1cc(NC(=O)c2cc3ccccc3o2)ccc1N1CCOCC1 [compound 73, methyl 5-[(1-benzofuran-2-ylcarbonyl)amino]-2-morpholin-4-ylbenzoate]
Avg Normalized % maximal activity: 6.43%

C#C[C@]1(O)CC[C@H]2[C@@H]3CCC4=C(CCC(=O)C4)[C@H]3CC[C@@]21C [compound 74]
Avg Normalized % maximal activity: 6.35%

Cc1cc(C)cc(C(=O)Nc2cccc(NC(=O)c3ccco3)c2)c1 [compound 75, N-{3-[(3,5-dimethylbenzoyl)amino]phenyl}-2-furamide]
Avg Normalized % maximal activity: 6.27%

O=C(Nc1cccc(NC(=O)c2ccco2)c1)c1cccc(Br)c1 [compound 76, N-{3-[(3-bromobenzoyl)amino]phenyl}-2-furamide]
Avg Normalized % maximal activity: 6.23%

CC(C(=O)O)c1ccc(-c2ccccc2)c(F)c1 (stereo not shown) [compound 77]
Avg Normalized % maximal activity: 6.18%

COc1ccc(NC(=O)COc2ccc3ccc(=O)oc3c2)cc1 [compound 78, N-(4-methoxyphenyl)-2-[(2-oxo-2H-chromen-7-yl)oxy]acetamide]
Avg Normalized % maximal activity: 6.16%

CCOC(=O)c1ccc(NC(=O)c2nn(CC)cc2Br)cc1 [compound 79, ethyl 4-{[(4-bromo-1-ethyl-1H-pyrazol-3-yl)carbonyl]amino}benzoate]
Avg Normalized % maximal activity: 6.01%

COc1ccc(Cl)cc1C(=O)Nc1cccc(-c2nnc(-c3ccco3)o2)c1 [compound 80, 5-chloro-N-{3-[5-(2-furyl)-1,3,4-oxadiazol-2-yl]phenyl}-2-methoxybenzamide]
Avg Normalized % maximal activity: 5.99%

C1CCN2C[C@@H]3C[C@@H](CN4CCCC[C@@H]34)[C@H]2C1.O=S(=O)(O)O [compound 81]
Avg Normalized % maximal activity: 5.81%

O=P1(N(CCCl)CCCl)NCCCO1 (stereo not shown) [compound 82]
Avg Normalized % maximal activity: 5.76%

CCOc1ccccc1C(=O)Nc1nc(C)c(C(=O)N(C)C)s1 [compound 83, 2-[(2-ethoxybenzoyl)amino]-N,N,4-trimethyl-1,3-thiazole-5-carboxamide]
Avg Normalized % maximal activity: 5.75%

NCCc1cc(O)c(O)cc1O [compound 84]
Avg Normalized % maximal activity: 5.72%

O=C(Nc1ccc2oc(-c3cccnc3)nc2c1)c1ccc(Br)o1 [compound 85, 5-bromo-N-[2-(3-pyridinyl)-1,3-benzoxazol-5-yl]-2-furamide]
Avg Normalized % maximal activity: 5.64%

Cc1ccc(C(=O)Nc2ccc(C(=O)N3CCCCC3)cc2)cc1 [compound 86, 4-methyl-N-[4-(1-piperidinylcarbonyl)phenyl]benzamide]
Avg Normalized % maximal activity: 5.63%

COc1ccc(Cl)cc1NC(=O)c1ccc2nccnc2c1 [compound 87, N-(5-chloro-2-methoxyphenyl)-6-quinoxaline-carboxamide]
Avg Normalized % maximal activity: 5.62%

COc1ccc(NC(=O)C(C)Oc2ccc3oc(=O)cc(C)c3c2)cc1 (stereo not shown) [compound 88, N-(4-methoxyphenyl)-2-[(4-methyl-2-oxo-2H-chromen-6-yl)oxy]propanamide]
Avg Normalized % maximal activity: 5.42%

COc1cccc(C(=O)Nc2ccc(-c3nc4ncccc4o3)cc2C)c1 [compound 89, 3-methoxy-N-(2-methyl-4-[1,3]oxazolo [4,5-b]pyridin-2-ylphenyl)benzamide]
Avg Normalized % maximal activity: 5.35%
